From patent publication US20120251448A1, “Compounds for Use in the Detection of Neurodegenerative Diseases” (priority 2011, published 2012) come the findings set out here.

One test concerns the target α-synuclein aggregates (Homo sapiens, UniProt P37840). In words: in vitro competition binding assay with [3H] positive reference compound #1 on α-synuclein aggregates.
Conditions: not given
On the procedure:
In order to assess relative binding affinities of the test compounds for aggregated α-synuclein, competition assays were set up with a radiolabeled molecule already known to bind to α-synuclein fibrils and non-radiolabeled test compounds. In order to induce its aggregation, α-synuclein was incubated in phosphate buffered saline (PBS, pH 7.4) at 37° C. for three days with shaking (1,400 rpm). Competitive binding assays were carried out in 12×75 mm borosilicate glass tubes. […] The mixture was incubated for 120 min at 37° C., and the bound and the free radioactivity were separated by vacuum filtration through Whatman GF/B filters using a Brandel M-24R cell harvester, followed by washing with PBS buffer three times. […] IC50 values were determined by a non-linear, least squares regression analysis.
For the compound `Oc1ccc(-c2nnc(-c3cc(O)c(O)cc3Br)o2)cc1O` [SA-55], the Ki amounted to 370 nM. Turning to `Oc1ccc(-c2cnc(-c3ccc(O)c(O)c3)s2)cc1O` [SA-64], the Ki amounted to 89 nM.

The test is the same for the next values; noted with them: competition against [3H] positive reference compound #1 (100-200 nM), 120 min at 37° C., PBS; Ki by Cheng-Prusoff from IC50.
The compound `Oc1ccc(-c2nc3cc(O)c(O)cc3o2)cc1O` [SA-54] had a Ki of 1640 nM.

`Oc1ccc(-c2nsc(-c3ccc(O)c(O)c3)n2)cc1O` [SA-57] returned a Ki of 124 nM.

In turn, `Oc1ccc(-c2cc(-c3ccc(O)c(O)c3)c(-c3ccc(O)c(O)c3)s2)cc1O` [SA-61] came in with a Ki of 3100 nM. The same measure, in the same setting: as for `Oc1ccc(-c2nnc(-c3ccc(O)c(O)c3)o2)cc1O` [SA-67], the figure is 466 nM; as for `Oc1ccc(-c2cn(-c3ccc(O)c(O)c3)nn2)cc1O` [SA-68], 697 nM. On to `Oc1ccc(-c2cnc(-c3ccc(O)c(O)c3)o2)cc1O` [SA-70], for which the Ki is 659 nM.

For the next test, the system named is amyloid-β peptide of Alzheimer's disease. In words: binding affinity for amyloid-β peptide (data not shown).
Conditions: not given
`Oc1ccc(-c2cnc(-c3ccc(O)c(O)c3)s2)cc1O` [SA-64]: the “binding affinity for the amyloid-β peptide” value is reported as “does not show significant binding affinity”.
